One series has as its system LAN1. Particulars: human neuroblastoma cell line LAN1; read-out: cytotoxicity IC50; cited from earlier work.
A further series relates to LAN5. Conditions: human neuroblastoma cell line LAN5; read-out: cytotoxicity IC50; cited from earlier work.
Series [1] deals with bone marrow CD34-positive cells. Conditions: cited from earlier work.
In a further series the test system is WAC2. Conditions: human neuroblastoma cell line WAC2; read-out: cytotoxicity IC50; cited from earlier work.
In another series the test system is MiaPaCa. Particulars: human pancreatic carcinoma MiaPaCa; read-out: cytotoxicity IC50; cited from earlier work.
A further series has as its system SK-N-AS. Particulars: human neuroblastoma cell line SK-N-AS; read-out: cytotoxicity IC50; cited from earlier work.

pIC50: −log10 of the molar value. Structures can show the parent of a compound that is named as a salt.

The text below walks through data of US8518928B2, “Therapeutic compounds” (Rutgers, The State University of New Jersey, priority 2006, dated 2013).

Consider `CC(C)C1NC(=O)c2coc(n2)-c2coc(n2)-c2coc(n2)C(CCCCN)NC(=O)c2coc(n2)-c2coc(n2)-c2coc1n2` (stereo not shown) (as salt: TFA) [Compound 15, Cyclic Lysine-Valine Amine TFA Salt], for which the melting point – broadly, the temperature, or range, at which the solid turns liquid – was in the range of 297 to 300 °C.
In the case of `Cc1oc2nc1-c1nc(co1)-c1nc(co1)-c1nc(co1)-c1nc(co1)-c1nc(co1)C1=NC(CS1)c1nc-2c(C)o1` (stereo not shown) [Telomestatin], the pIC50 (as a rule, the negative decadic logarithm of the IC50, by convention in mol/L) in the series with LAN1 is 5.40; in the series on LAN5, 5.60; with WAC2, 5.49; in the series on MiaPaCa, 6.30; in the series with SK-N-AS, 6.10. For the same compound, the “effect on BFU-E and CFU-GM” value in series [1] is recorded as “much lesser effect”.
